In patent US20210236497A1 (priority 2020, published 2021):
Structures can show the parent of a compound that is named as a salt. Where two headings read alike, the source gives them in different places.

Columns and labels:
[1] = system: nCoV-2019 (SARS-CoV2) infected Vero E6 cells; experiment: microbe, parasite or virus in culture; type: cell-based, SARS-CoV-2; settings: for inhibition at 0.075 µM: Severe acute respiratory syndrome coronavirus 2, Vero C1008, 0.075 μM
[2] = cited from earlier work; for Observed toxic effect: humans
[3] = African green monkeys; 1.6 mg/kg x 14 days; total dose 22.4; cited from earlier work
[4] = Rats; total of multi dose; cited from earlier work
[5] = mice; following 12 days post injection; cited from earlier work

NC(=O)c1cn([C@@H]2O[C@H](CO)[C@@H](O)[C@H]2O)c2ncnc(N)c12 [Oya2, 4-amino-7-((2R,3R,4S,5R)-3,4-dihydroxy-5-(hydroxymethyl)tetrahydrofuran-2-yl)-7H-pyrrolo[2,3-d]pyrimidine-5-carboxamide hydrochloride]
inhibition at 0.0094 µM ([1]; Severe acute respiratory syndrome coronavirus 2, Vero C1008, 0.0094 μM, MOI 0.6 Plate 2, Table 4C): 33.9%
inhibition at 0.0375 µM ([1]; Severe acute respiratory syndrome coronavirus 2, Vero C1008, 0.0375 μM, Plate 2, Table 6C): 12.2%
inhibition at 0.075 µM ([1]; MOI 0.6 Plate 1, Table 3C): 45.6%
inhibition at 0.075 µM ([1]; MOI 0.6 Plate 2, Table 4C): 83.1%
inhibition at 0.15 µM ([1]; Severe acute respiratory syndrome coronavirus 2, Vero C1008, 0.15 μM, MOI 0.6 Plate 1, Table 3C): 90.1%

NC(=O)c1cn([C@@H]2O[C@H](CO)[C@@H](O)[C@H]2O)c2ncnc(N)c12 [Oya1, 4-amino-7-((2R,3R,4S,5R)-3,4-dihydroxy-5-(hydroxymethyl)tetrahydrofuran-2-yl)-7H-pyrrolo[2,3-d]pyrimidine-5-carboxamide]
anti-cancer activity ([2]; Phase I clinical trials during the 1960's): inactive against cancer
tolerability in humans ([2]; Phase I clinical trials, dosing levels of Table 8): well tolerated
Observed toxic effect ([2]; daily, highest dosing regimen 120 μg/kg/day x 41 days): 0
Observed toxic effect ([2]; thrice weekly, highest dosing regimen 50-250 μg/kg/day x 45 days): 0
Observed toxic effect ([2]; weekly, highest dosing regimen 200 μg/kg/day x 150 days): 0
Effect [3]: lethal
average toxicity margin or selectivity index [1]: 4.8
toxicity margin or selectivity index, high [1]: 8.2
toxicity margin or selectivity index, low [1]: 3.1
fold increase in activity for Oya1 over chlorpromazine HCl ([1]; MOI 0.6, FIG. 4 and FIG. 5): 1000 fold
fold increase in activity for Oya1 over chlorpromazine HCl ([1]; MOI 1.3, FIG. 8 and FIG. 9): 1000 fold
inhibition at 0.075 µM ([1]; MOI 0.6 Plate 1): 95.5%
inhibition at 0.075 µM ([1]; MOI 0.6 Plate 2): 91.9%
inhibition at 0.075 µM ([1]; Plate 1): 93.8%
inhibition at 0.075 µM ([1]; Plate 2): 99.4%
LD50, total dose [4]: 1.2 mg/kg
amount cleared [5]: 40%
